pIC50: −log10 of the molar value.
Tested on: HCT116 MTAP^−/− cells
Assay: Determination of intracellular SAM level by LC-MS/MS
Type: cell-based
Conditions: Homo sapiens, HCT-116, 6 h, read-out: SAM production inhibitory activity IC50
Description: Test Example 2. Determination of Intracellular SAM Level
The brief introduction of the test principle: After the test MAT2A inhibitor was incubated with cancer cells for a period of time, the cells were lysed with a stop reagent to quench the activity of the MAT2A enzyme. The catalytic product SAM of MAT2A in the cell lysate was quantitatively determined by LC-MS/MS, and thus the activity of MAT2A in the cell was reflected.
Reference: The experiment referred to the method disclosed in patent WO2018045071.
Material and cell: HCT116 MTAP^−/− cells were purchased from KYinno; fetal bovine serum, McCoy's 5a culture medium, and penicillin-streptomycin were purchased from Gibco Company (U.S.), and 96-well plates were purchased from Corning Company (U.S.).
Cell culture: HCT116 MTAP^−/− cells were cultured with a McCoy's 5a medium containing 10% fetal bovine serum+1% penicillin-streptomycin at 37° C. with 5% CO2. Cells at logarithmic growth phase were available for the experiment.
LC-MS/MS detection: The effect of the compound on the SAM production level in HCT116 MTAP^−/− cell strains was detected by LC-MS/MS. The cells were adjusted to a concentration of 50000 cells per well, seeded on a 96-well plate, and incubated overnight at 37° C. with 5% CO2. In the experimental group, the test compound was dissolved in DMSO, diluted sequentially with DMSO and a culture medium, and transferred to a cell plate at a final concentration of 10 μM, 3-fold dilution. The cells were continuously cultured at 37° C. with 5% CO2 for 6 h. The supernatant was pipetted off. After the cells were washed once with PBS, glacial acetic acid was added to lyse the cells. After the lysate was processed, the SAM concentration was determined by LC-MS/MS analysis.
A negative control group and a positive control group were respectively used as Bottom and Top. The negative control group was added with 10 μM positive compound (compound 072 of Example 51 of patent WO2021139775A1) in the same volume, and other operations were consistent with those of the experimental group. The positive control group was not added with the test compound, only added with DMSO in the same volume, and other operations were consistent with those of the experimental group.
The % Compound inhibition was calculated and fitted to give the IC50 of the compound.
% Compound inhibition=1−100%×(Signal−Bottom)/(Top−Bottom)
Signal referred to the signal value of the experimental group, Bottom referred to the average signal value of the negative control group, and Top referred to the average signal value of the positive control group.

SMILES	pIC50
Cc1ncccc1-n1c(=O)c2ncn(C)c2c2ccc(C(F)(F)F)nc21 (atropisomer, axis not shown) [Compound 20, 1-methyl-5-(2-methylpyridin-3-yl)-7-(trifluoromethyl)-1,5-dihydro-4H-imidazo[4,5-c][1,8]naphthyridin-4-one]	8.52
Cn1cnc2c(=O)n(-c3cccnc3C3CC3)c3cc(Cl)ccc3c21 (single isomer, unassigned) [Compound 49-P2, 7-chloro-5-(2-cyclopropylpyridin-3-yl)-1-methyl-1,5-dihydro-4H-imidazo[4,5-c]quinolin-4-one]	8.72
Cn1cnc2c(=O)n(-c3cccc(F)c3Cl)c3nc(C(F)(F)F)ccc3c21 (atropisomer, axis not shown) [Compound 25, 5-(2-chloro-3-fluorophenyl)-1-methyl-7-(trifluoromethyl)-1,5-dihydro-4H-imidazo[4,5-c][1,8]naphthyridin-4-one]	8.36
Cn1cnc2c(=O)n(-c3cccc(F)c3Cl)c3nc(C(F)(F)F)ccc3c21 (single isomer, unassigned) [Compound 25-P2, 5-(2-chloro-3-fluorophenyl)-1-methyl-7-(trifluoromethyl)-1,5-dihydro-4H-imidazo[4,5-c][1,8]naphthyridin-4-one]	8.55
Cn1cnc2c(=O)n(-c3cccnc3C(F)(F)F)c3nc(C(F)(F)F)ccc3c21 (single isomer, unassigned) [Compound 41-P2, 1-methyl-7-(trifluoromethyl)-5-(2-(trifluoromethyl)pyridin-3-yl)-1,5-dihydro-4H-imidazo[4,5-c][1,8]naphthyridin-4-one]	8.34
